Results on nine compounds are retold here after US12459951B2, “Compounds that interact with RAS superfamily proteins for treatment of cancers, inflammatory diseases, rasopathies, and fibrotic disease” (SHY Therapeutics, LLC, priority 2022, dated 2025).

SMILES strings stand for the structures. Where two headings read alike, the source gives them in different places.

The nature of series [1]: Mouse Liver Microsome Metabolic Stability Assay. Format: in vitro ADME. To be noted: pH 7.4, Mouse liver microsomes, 37° C., NADPH, read-out: t½. Summed up: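 Compounds (2 μM, 1.6% solvent) incubated at 37 °C with mouse liver microsomes (0.42 mg/mL) in 100 mM phosphate pH 7.4 with an NADPH-regenerating system; five time points over 40 min, duplicates, LC-MS/MS. kel, t1/2 and Clint from linear regression of ln(AUC) vs. time; no-NADPH controls.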

Series [2] deals with NCI-H358 (expressing KRas G12C mutant). Briefly: Proliferation Assay (Cell Viability Assay). Format: cell-based. To be noted: Homo sapiens. The gist of the method: (§1)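 Cells plated at 2000–5000/well overnight, then treated 2–4 days at 37 °C, 5% CO2 with compound at 10 μM single dose or serial dilutions for IC50, in 0.3% DMSO and 10% FBS. Viability read by CellTiter 96 Aqueous One (MTS); % proliferation inhibition calculated from raw data.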

For series [3], the system named is BT-549 (expressing wild type KRAS). The experiment in a line: Proliferation Assay (Cell Viability Assay). Format: cell-based. To be noted: Homo sapiens. Summed up: as §1
The test system of series [4] is MM.1R (expressing wild type KRAS). The experiment in a line: Proliferation Assay (Cell Viability Assay). Format: cell-based. The note with it: Homo sapiens, read-out: MM.1R IC50 (nM) Multiple Myloma. Summed up:
as §1

In the next series the test system is A375 (wild type Kras). The experiment in a line: Proliferation Assay (Cell Viability Assay). Format: cell-based. The note with it: Homo sapiens, A-375. Summed up: as §1
Series [5] deals with GP2d (expressing KRas G12D mutant). The experiment in a line: Proliferation Assay (Cell Viability Assay). Format: cell-based. The note with it: Homo sapiens. Summed up: as §1
[6] abbreviates: Proliferation assay, NCI-H358, read-out: NCI-H358 IC50 (nM) NSCLC.
Where [7] appears, read: BT-549, Proliferation assay, BT549, read-out: BT549 IC50 (nM) TNBC.
[8] abbreviates: Proliferation assay, A375, read-out: A375 IC50 (nM) Melanoma.
Where [9] appears, read: Proliferation assay, read-out: GP2d IC50 (nM) Colorectal.

`Cc1[nH]nc(Nc2nc(-c3nccn3C)nn3cc(-c4ccn(C)n4)c(C)c23)c1C` [Compound 267, N-(4,5-Dimethyl-1H-pyrazol-3-yl)-5-methyl-2-(1-methyl-1H-imidazol-2-yl)-6-(1-methyl-1H-pyrazol-3-yl)pyrrolo[2,1-f][1,2,4]triazin-4-amine]: the half-life at 2 µM in series [1] is over 10 min. Also, the IC50 in series [2] (setting [6]) is 1 to 10 nM; in series [3] (setting [7]), 10 to 50 nM; in series [4], under 1 nM; in the series with A375 (wild type Kras) (setting [8]) it was 1 to 10 nM; in series [5] (setting [9]), 1 to 10 nM.

Turning to `Cc1c(-c2ccn(C)n2)cn2nc(-c3nccn3C)nc(Nc3cc(C(C)C)[nH]n3)c12` [Compound 268, N-(5-Isopropyl-1H-pyrazol-3-yl)-5-methyl-2-(1-methyl-1H-imidazol-2-yl)-6-(1-methyl-1H-pyrazol-3-yl)pyrrolo[2,1-f][1,2,4]triazin-4-amine], the half-life at 2 µM in series [1] is under 10 min.

For the compound `COc1ccnc(Nc2nc(-c3nccn3C)nn3cc(-c4ccn(C(C)C)n4)c(C)c23)c1` [Compound 58, 6-(1-Isopropyl-1H-pyrazol-3-yl)-N-(4-methoxypyridin-2-yl)-5-methyl-2-(1-methyl-1H-imidazol-2-yl)pyrrolo[2,1-f][1,2,4]triazin-4-amine], the IC50 in series [2] (NCI-H358, NSCLC, KRas G12C, read-out: Proliferation assay IC50) is under 150 nM; in series [2] (setting [6]) it was 10 to 50 nM; in series [3] (setting [7]) it was 1 to 10 nM; in series [3] (BT-549, Breast (TNBC), KRas WT, read-out: Proliferation assay IC50), under 150 nM; in series [4] it was under 1 nM; with A375 (wild type Kras) (A375, melanoma, KRas WT, read-out: Proliferation assay IC50), under 150 nM. For the same compound, the IC50 with A375 (wild type Kras) (setting [8]) was 1 to 10 nM; in series [5] (setting [9]), 10 to 50 nM; in series [5] (colon, KRas G12D, read-out: Proliferation assay IC50), under 150 nM.

Regarding `Cc1cc(Nc2nc(-c3nccn3C)nn3cc(-c4ccn(C)n4)c(C)c23)n[nH]1` [Compound 255, 5-Methyl-2-(1-methyl-1H-imidazol-2-yl)-6-(1-methyl-1H-pyrazol-3-yl)-N-(5-methyl-1H-pyrazol-3-yl)pyrrolo[2,1-f][1,2,4]triazin-4-amine], the half-life at 2 µM in series [1] was over 10 min. Besides, the IC50 in series [2] (setting [6]) is 1 to 10 nM; in series [3] (setting [7]), 1 to 10 nM; in series [4], under 1 nM; with A375 (wild type Kras) (setting [8]) it was 10 to 50 nM; in series [5] (setting [9]), 1 to 10 nM.

Regarding `CCOc1cc(Nc2nc(-c3nccn3C)nn3cc(-c4ccn(C)n4)c(C)c23)n[nH]1` [Compound 260, N-(5-Ethoxy-1H-pyrazol-3-yl)-5-methyl-2-(1-methyl-1H-imidazol-2-yl)-6-(1-methyl-1H-pyrazol-3-yl)pyrrolo[2,1-f][1,2,4]triazin-4-amine], the half-life at 2 µM in series [1] was under 10 min.

Take `Cc1c(-c2ccn(C)n2)cn2nc(-c3nccn3C)nc(Nc3cc(-c4ccccn4)[nH]n3)c12` [Compound 265, 5-Methyl-2-(1-methyl-1H-imidazol-2-yl)-6-(1-methyl-1H-pyrazol-3-yl)-N-(5-(pyridin-2-yl)-1H-pyrazol-3-yl)pyrrolo[2,1-f][1,2,4]triazin-4-amine]: in series [1], the half-life at 2 µM was over 10 min.

On to `COc1cc(Nc2nc(-c3nccn3C)nn3cc(-c4ccn(C)n4)c(C)c23)n[nH]1` [Compound 252, N-(5-Methoxy-1H-pyrazol-3-yl)-5-methyl-2-(1-methyl-1H-imidazol-2-yl)-6-(1-methyl-1H-pyrazol-3-yl)pyrrolo[2,1-f][1,2,4]triazin-4-amine], for which the half-life at 2 µM in series [1] was under 10 min. In addition, the IC50 in series [2] (setting [6]) is 1 to 10 nM; in series [3] (setting [7]), 10 to 50 nM; in series [4], under 1 nM; in the series on A375 (wild type Kras) (setting [8]), over 50 nM; in series [5] (setting [9]), 1 to 10 nM.

For the compound `Cc1c(-c2ccn(C)n2)cn2nc(-c3nccn3C)nc(Nc3cc(-c4ccccn4)ccn3)c12` [Compound 248, N-([2,4′-Bipyridin]-2′-yl)-5-methyl-2-(1-methyl-1H-imidazol-2-yl)-6-(1-methyl-1H-pyrazol-3-yl)pyrrolo[2,1-f][1,2,4]triazin-4-amine], the half-life at 2 µM in series [1] is over 10 min.

Regarding `Cc1c(-c2ccn(C)n2)cn2nc(-c3nccn3C)nc(Nc3cc(-c4cccnc4)ccn3)c12` [Compound 250, N-([3,4′-Bipyridin]-2′-yl)-5-methyl-2-(1-methyl-1H-imidazol-2-yl)-6-(1-methyl-1H-pyrazol-3-yl)pyrrolo[2,1-f][1,2,4]triazin-4-amine], the half-life at 2 µM in series [1] is under 10 min.
